Converted amounts (≈) assume the structure as drawn. Bounds are passed on as bounds.

One compound from ChEMBL document CHEMBL5046321, “Discovery by Virtual Screening of an Inhibitor of CDK5-Mediated PPARγ Phosphorylation” (ACS Med Chem Lett, 2022) can be followed below.

A short description of series [1]: Lipophilicity, logD of compound at pH 7.4 by shake flask assay based LC-MS/MS analysis. The format is physicochemical. Conditions: buffer.
The nature of series [2]: Aqueous solubility of the compound by LC-MS/MS analysis. To be noted: buffer. Format: physicochemical.
Series [3] can be described thus: Metabolic stability in human Hepatocyte assessed as intrinsic clearance in 1 million cells/mL measured upto 60 mins by LC-MS/MS analysis. Conditions: hepatocytes, read-out: CLH. The format is ADME, cell-based.
The nature of series [4]: Metabolic stability in rat Hepatocyte assessed as intrinsic clearance in 1 million cells/mL measured upto 120 mins by LC-MS/MS analysis. Format: ADME, cell-based. Conditions: hepatocytes, read-out: CLH.
A short description of series [5]: Metabolic stability in mouse Hepatocyte assessed as intrinsic clearance in 1 million cells/mL by LC-MS/MS analysis. The format is ADME, cell-based. To be noted: hepatocytes, read-out: CLH.
The nature of series [6]: Apparent permeability in human Caco-2 cells at 10 uM incubated for 45 to 120 mins by LC-MS/MS analysis. Format: ADME, cell-based. Conditions: time 45-120 min, read-out: permeability. A general note: Passage across Caco-2 layers is used to estimate intestinal permeability.
Series [7] in a line: Oral bioavailability in lean C57BL/6J mouse at 100 umol/kg dosed daily for 7 days by HPLC-MS analysis. Format: ADME, organism-based. Conditions: in vivo, at 100 µmol/kg, time 7 day.
Series [8] in a line: Cmax in lean C57BL/6J mouse at 100 umol/kg, po dosed daily for 7 days by HPLC-MS analysis. Set-up: route oral, dose 100 µmol/kg, time 7 day. Conditions: in vivo. Format: ADME, organism-based.
Series [9] can be described thus: Half life in lean C57BL/6J mouse at 100 umol/kg, po dosed daily for 7 days by HPLC-MS analysis. The format is ADME, organism-based. To be noted: in vivo, dose 100 µmol/kg, time 7 day.
Series [10] in a line: Metabolic stability in human liver microsomes assessed as intrinsic clearance measured upto 30 mins by LC-MS/MS analysis. Format: ADME, Microsome. Conditions: read-out: CLH.

By logD is commonly meant the decadic logarithm of the distribution of all forms, ionised or not, between an organic phase and buffer at a given pH. What is called solubility is the concentration that dissolves in the medium under given conditions. A low value points to little dissolved substance. In general, Cmax refers to the peak of the concentration-time curve. In general, half-life refers to the time needed for the level to fall by half in the phase considered. Read a low half-life as fast loss. `O=C(O)c1nn(Cc2ccc(Cl)c(Cl)c2)c(=O)c2cc(Oc3ccccc3)ccc12` showed a pH-dependent lipophilicity (logD) in series [1] of 2.3. For the same compound, the concentration in solution in [2] (solubility) came to 324 µM (≈ 143 µg/mL). Further, the hepatocyte CLint in [3] came out at 15.2 µL/min/1e6 cells; in series [4], 8.8 µL/min/1e6 cells; in [5] it was 10 µL/min/1e6 cells. For the same compound, the Papp at 10 µM in series [6] worked out at 130 nm/s. Moreover, the bioavailability in series [7] amounted to 109%. In [8], this compound came in with a maximum concentration (Cmax) of 167 µM. In [9], this compound showed a half-life of 5 h. In addition, in [10], the microsomal CLint was below 4 µL/min/mg.
